Measured values from patent US20250313563A1, “GLYCOGEN SYNTHASE KINASE 3 INHIBITORS AND USES THEREOF” (The Broad Institute, Inc., priority 2022, published 2025).
Read-outs that look alike come from different tables or passages of the source.

How the values were obtained:
[1] = molecular target: GSK3b (GST-full length GSK3b) (Homo sapiens (Human), UniProt P49841); assay: GSK3b TR-FRET kinase assay; assay type: biochemical
Method in brief: (§1)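 IC50 came from the normalized 665/615 nm TR-FRET ratio plotted against log compound concentration. The Tb-labelled pSer641 antibody and streptavidin-d2 detected phosphorylation of biotinylated S645-primed glycogen synthase peptide (200 nM) by 1 nM full-length GST-kinase. ATP was 4 μM for α, 2 μM for β, or 1 mM.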

[2] = molecular target: GSK3α (GST-full length GSK3α) (Homo sapiens (Human), UniProt P49840); assay: GSK3α TR-FRET kinase assay; assay type: biochemical
Sequence of GSK3α (GST-full length GSK3α) (P49840 whole entry): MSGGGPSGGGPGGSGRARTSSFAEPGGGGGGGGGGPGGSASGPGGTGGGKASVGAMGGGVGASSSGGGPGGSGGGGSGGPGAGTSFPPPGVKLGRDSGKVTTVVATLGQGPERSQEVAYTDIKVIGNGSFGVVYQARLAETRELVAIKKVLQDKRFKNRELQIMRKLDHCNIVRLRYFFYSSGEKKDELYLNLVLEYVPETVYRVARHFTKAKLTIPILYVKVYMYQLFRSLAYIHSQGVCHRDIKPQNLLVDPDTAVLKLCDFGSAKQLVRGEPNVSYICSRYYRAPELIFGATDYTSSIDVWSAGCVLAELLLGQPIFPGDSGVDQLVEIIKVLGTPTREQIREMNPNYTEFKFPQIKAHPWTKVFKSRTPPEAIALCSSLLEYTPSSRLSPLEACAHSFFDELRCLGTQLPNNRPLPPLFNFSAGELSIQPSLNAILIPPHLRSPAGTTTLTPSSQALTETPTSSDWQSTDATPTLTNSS
Method in brief: as §1

[3] = 1 nM GSK3b, 2 μM ATP, 30 minute preincubation, read-out: GSK3-B TR-FRET BIOCHEMICAL (TR-FRET), IC50
[4] = 1 nM GSK3α, 4 μM ATP, 30 minute preincubation, read-out: GSK3-A TR-FRET BIOCHEMICAL (TR-FRET), IC50
[5] = 1 nM GSK3b, 2 μM ATP, 30 minute preincubation, Table 16, read-out: GSK3-B TR-FRET BIOCHEMICAL (TR-FRET)
[6] = read-out: GSK3-B (TR-FRET 1 mM ATP), GMean, IC50, 1 mM ATP, geometric mean
[7] = 1 nM GSK3α, 4 μM ATP, 30 minute preincubation, Table 16, read-out: GSK3-A TR-FRET BIOCHEMICAL (TR-FRET)
[8] = read-out: GSK3-A (TR-FRET 1 mM ATP), GMean, IC50, 1 mM ATP, geometric mean

Sequence of GSK3b (GST-full length GSK3b) (P49841 whole entry): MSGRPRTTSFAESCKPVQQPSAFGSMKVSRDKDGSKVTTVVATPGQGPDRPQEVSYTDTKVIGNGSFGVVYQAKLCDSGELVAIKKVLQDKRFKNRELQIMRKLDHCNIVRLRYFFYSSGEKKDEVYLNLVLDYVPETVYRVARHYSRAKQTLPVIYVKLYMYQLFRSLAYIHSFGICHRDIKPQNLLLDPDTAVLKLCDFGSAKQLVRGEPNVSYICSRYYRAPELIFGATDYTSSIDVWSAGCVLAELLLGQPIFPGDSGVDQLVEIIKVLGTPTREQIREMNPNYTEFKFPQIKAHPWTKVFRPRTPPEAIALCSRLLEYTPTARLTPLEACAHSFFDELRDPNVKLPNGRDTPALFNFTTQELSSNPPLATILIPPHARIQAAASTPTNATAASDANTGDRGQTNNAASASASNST

Row | Structure (SMILES) | IC50 [1, 5] [µM] | IC50 [2, 7] [µM] | further results
1 | CC[C@@]1(c2cccc(-c3cn(C)nc3C)c2)C2=C(CC(C)(C)NC2=O)Nc2n[nH]cc21 [Compound 945480] | – | – | IC50 [1, 3]: > 5 µM; IC50 [2, 4]: 1 to 5 µM
2 | CCC1(c2cccc(-c3ccncc3OC)c2)C2=C(CC(C)(C)CC2=O)Nc2n[nH]cc21 (stereo not shown) [Compound 945481] | ≤ 0.1 | ≤ 0.1 | IC50 [1, 6]: 0.1 to 1 µM; IC50 [2, 8]: ≤ 0.1 µM
3 | CC1(C)CC(=O)C2=C(C1)Nc1n[nH]cc1[C@]21CCCN(S(=O)(=O)Cc2ccccc2)CC1 [Compound 945483] | 0.1 to 1 | 0.1 to 1 | –
4 | CC[C@@]1(c2cccc(-c3ccnc(C)c3)c2)C2=C(CC(C)(C)[C@H](F)C2=O)Nc2n[nH]cc21 [Compound 945486] | > 5 | 1 to 5 | –
5 | CCC1(c2cccc(-c3ccncc3C)c2)C2=C(CC(C)(C)CC2=O)Nc2n[nH]c(C(F)(F)F)c21 (stereo not shown) [Compound 945527] | ≤ 0.1 | ≤ 0.1 | IC50 [1, 6]: 0.1 to 1 µM; IC50 [2, 8]: ≤ 0.1 µM
6 | CCC1(c2cccc(-c3ccncc3F)c2)C2=C(CC(C)(C)CC2=O)Nc2n[nH]c(C(F)(F)F)c21 (stereo not shown) [Compound 945528] | ≤ 0.1 | ≤ 0.1 | IC50 [1, 6]: 0.1 to 1 µM; IC50 [2, 8]: ≤ 0.1 µM
7 | CCC1(c2cccc(-c3ccnn3C)c2)C2=C(CC(C)(C)CC2=O)Nc2n[nH]c(C(F)(F)F)c21 (stereo not shown) [Compound 945531] | ≤ 0.1 | ≤ 0.1 | IC50 [1, 6]: 0.1 to 1 µM; IC50 [2, 8]: ≤ 0.1 µM
8 | CCC1(c2cccc(-c3cc(C)nn3C)c2)C2=C(CC(C)(C)CC2=O)Nc2n[nH]c(C(F)(F)F)c21 (stereo not shown) [Compound 945532] | ≤ 0.1 | ≤ 0.1 | IC50 [1, 6]: 0.1 to 1 µM; IC50 [2, 8]: ≤ 0.1 µM
9 | CCC1(c2cccc(-c3cnn4c3CCCC4)c2)C2=C(CC(C)(C)CC2=O)Nc2n[nH]cc21 (stereo not shown) [Compound 945543] | ≤ 0.1 | ≤ 0.1 | IC50 [1, 6]: 1 to 5 µM; IC50 [2, 8]: 0.1 to 1 µM
10 | CCC1(c2cccc(-c3cnn4c3CCCC4)c2)C2=C(CC(C)(C)CC2=O)Nc2n[nH]cc21 (stereo not shown) [Compound 945544] | > 5 | 0.1 to 1 | –
11 | CC[C@@]1(c2cccc(-c3cn(C)nc3C)c2)C2=C(CC(C)(C)CC2=O)Nc2n[nH]cc21 [Compound 945545] | > 5 | 1 to 5 | –
12 | CC[C@]1(c2cccc(-c3cn(C)nc3C)c2)C2=C(CC(C)(C)CC2=O)Nc2n[nH]cc21 [Compound 945546] | ≤ 0.1 | ≤ 0.1 | IC50 [1, 6]: 0.1 to 1 µM; IC50 [2, 8]: ≤ 0.1 µM
13 | CC1(C)CC(=O)C2=C(C1)Nc1n[nH]cc1[C@@]21CCCc2c(-c3ccncc3)cccc21 [Compound 945547] | > 5 | 1 to 5 | –
14 | CC1(C)CC(=O)C2=C(C1)Nc1n[nH]cc1[C@]21CCCc2c(-c3ccncc3)cccc21 [Compound 945548] | ≤ 0.1 | ≤ 0.1 | –
15 | Cc1cc(-c2cccc3c2CCC[C@]32C3=C(CC(C)(C)CC3=O)Nc3n[nH]cc32)ccn1 [Compound 945549] | ≤ 0.1 | ≤ 0.1 | –
16 | Cc1cc(-c2cccc3c2CCC[C@@]32C3=C(CC(C)(C)CC3=O)Nc3n[nH]cc32)ccn1 [Compound 945550] | > 5 | 0.1 to 1 | –
17 | Cn1nccc1-c1cccc2c1CCC[C@]21C2=C(CC(C)(C)CC2=O)Nc2n[nH]cc21 [Compound 945551] | ≤ 0.1 | ≤ 0.1 | –
18 | Cn1nccc1-c1cccc2c1CCC[C@@]21C2=C(CC(C)(C)CC2=O)Nc2n[nH]cc21 [Compound 945552] | > 5 | 0.1 to 1 | –
19 | CCC1(c2cccc(-c3c(C)nn(C)c3C)c2)C2=C(CC(C)(C)NC2=O)Nc2n[nH]c(C)c21 (stereo not shown) [Compound 945598] | – | – | IC50 [1, 3]: ≤ 0.1 µM; IC50 [2, 4]: ≤ 0.1 µM
20 | CCc1cc(N(C)c2cccc(C3(CC)C4=C(CC(C)(C)CC4=O)Nc4n[nH]cc43)c2)ccn1 (stereo not shown) [Compound 945600] | 1 to 5 | 0.1 to 1 | –
21 | CCC1(c2cccc(CS(C)(=O)=O)c2)C2=C(CC(C)(C)CC2=O)Nc2n[nH]cc21 (stereo not shown) [Compound 945601] | 0.1 to 1 | 0.1 to 1 | –

Row | Structure (SMILES) | IC50 [1, 5] [µM] | IC50 [2, 7] [µM] | further results
22 | CCC1(c2cccc(N3CCOCC3)c2)C2=C(CC(C)(C)NC2=O)Nc2n[nH]cc21 (stereo not shown) [Compound 945602] | – | – | IC50 [1, 3]: > 5 µM; IC50 [2, 4]: 1 to 5 µM
23 | CCC1(c2cccc(-c3cnn4c3CCCC4)c2)C2=C(CC(C)(C)NC2=O)Nc2n[nH]cc21 (stereo not shown) [Compound 945603] | – | – | IC50 [1, 3]: 0.1 to 1 µM; IC50 [2, 4]: ≤ 0.1 µM
24 | CC[C@]1(c2cccc(S(C)(=O)=O)c2)C2=C(CC(C)(C)NC2=O)Nc2n[nH]cc21 [Compound 945604] | – | – | IC50 [1, 3]: ≤ 0.1 µM; IC50 [2, 4]: ≤ 0.1 µM
25 | CC[C@]1(c2cccc(-c3cncn3C)c2)C2=C(CC(C)(C)CC2=O)Nc2n[nH]cc21 [Compound 945605] | ≤ 0.1 | ≤ 0.1 | –
26 | CCC1(c2cccc(-c3ccnc4c3CCC4)c2)C2=C(CC(C)(C)CC2=O)Nc2n[nH]cc21 (stereo not shown) [Compound 945606] | 0.1 to 1 | ≤ 0.1 | IC50 [1, 6]: 1 to 5 µM; IC50 [2, 8]: 0.1 to 1 µM
27 | CC[C@]1(c2cccc(-c3cnc4n3CCCC4)c2)C2=C(CC(C)(C)CC2=O)Nc2n[nH]cc21 [Compound 945607] | 0.1 to 1 | ≤ 0.1 | IC50 [1, 6]: > 5 µM; IC50 [2, 8]: 1 to 5 µM
28 | CC[C@]1(c2cccc(-c3cnn(C)c3C)c2)C2=C(CC(C)(C)NC2=O)Nc2n[nH]cc21 [Compound 945608] | – | – | IC50 [1, 3]: 0.1 to 1 µM; IC50 [2, 4]: ≤ 0.1 µM
29 | CC[C@]1(c2cccc(N(C)c3cc(C)cc(C)n3)c2)C2=C(CC(C)(C)CC2=O)Nc2n[nH]cc21 [Compound 945610] | 0.1 to 1 | ≤ 0.1 | –
30 | CC[C@]1(c2cccc(-c3cnn(C)c3)c2)C2=C(CC(C)(C)NC2=O)Nc2n[nH]c(C)c21 [Compound 945611] | – | – | IC50 [1, 3]: > 5 µM; IC50 [2, 4]: > 5 µM
31 | CC[C@]1(c2cccc(-c3cnc(C)n3C)c2)C2=C(CC(C)(C)CC2=O)Nc2n[nH]cc21 [Compound 945612] | > 5 | 1 to 5 | –
32 | CC[C@@]1(c2cccc(-c3cnc(C)n3C)c2)C2=C(CC(C)(C)CC2=O)Nc2n[nH]cc21 [Compound 945613] | ≤ 0.1 | ≤ 0.1 | IC50 [1, 6]: 1 to 5 µM; IC50 [2, 8]: 0.1 to 1 µM
33 | CCC1(c2cccc(-c3cnn(C)c3)c2)C2=C(CC(C)(C)NC2=O)Nc2n[nH]c(C)c21 (stereo not shown) [Compound 945614] | – | – | IC50 [1, 3]: 0.1 to 1 µM; IC50 [1, 6]: 1 to 5 µM; IC50 [2, 4]: ≤ 0.1 µM; IC50 [2, 8]: 0.1 to 1 µM
34 | CC[C@@]1(c2cccc(-c3cnn(C)c3C)c2)C2=C(CC(C)(C)NC2=O)Nc2n[nH]cc21 [Compound 945617] | – | – | IC50 [1, 3]: > 5 µM; IC50 [2, 4]: 1 to 5 µM
35 | CC[C@@]1(c2cccc(-c3ccnc4c3CCC4)c2)C2=C(CC(C)(C)CC2=O)Nc2n[nH]cc21 [Compound 945619] | > 5 | 1 to 5 | –
36 | CCC1(c2cccc(-c3cncn3C)c2)C2=C(CC(C)(C)CC2=O)Nc2n[nH]cc21 (stereo not shown) [Compound 945620] | 1 to 5 | 0.1 to 1 | –
37 | CC[C@@]1(c2cccc(C(F)(F)F)c2)C2=C(CCN(C(C)(C)C)C2=O)Nc2n[nH]cc21 [Compound 945633] | – | – | IC50 [1, 3]: > 5 µM; IC50 [2, 4]: > 5 µM
38 | CC[C@]1(c2cccc(C(F)(F)F)c2)C2=C(CCN(C(C)(C)C)C2=O)Nc2n[nH]cc21 [Compound 945634] | – | – | IC50 [1, 3]: > 5 µM; IC50 [2, 4]: 1 to 5 µM
39 | CCC1(c2cccc(C(F)(F)F)c2)C2=C(CCN(c3cccnc3)C2=O)Nc2n[nH]cc21 (stereo not shown) [Compound 945637] | – | – | IC50 [1, 3]: 0.1 to 1 µM; IC50 [2, 4]: ≤ 0.1 µM
40 | CC1(C)CC(=O)C2=C(C1)Nc1n[nH]cc1C21CCN(S(=O)(=O)c2ccccc2Cl)CC1 [Compound 945655] | ≤ 0.1 | ≤ 0.1 | –
41 | COc1cccc(S(=O)(=O)N2CCC3(CC2)C2=C(CC(C)(C)CC2=O)Nc2n[nH]cc23)c1F [Compound 945656] | ≤ 0.1 | ≤ 0.1 | IC50 ([1]; GSK3-B (TR-FRET 1 mM ATP), GMean, IC50, 1 mM ATP, geometric mean): 0.1 to 1 µM; IC50 ([2]; GSK3-A (TR-FRET 1 mM ATP), GMean, IC50, 1 mM ATP, geometric mean): ≤ 0.1 µM
